Laboratory results reported in publication PMC10631261 (Chemical Science, 2023).
Where “and” joins values, the source holds several entries; their conditions need not be identical. Identical values can stand only once. Like-named read-outs stand apart in the source and are kept apart here.

How the values were obtained:
FIH = biological target: T1, FIH (Homo sapiens, UniProt Q9NWT6); assay: SPE-MS FIH inhibition assay; format: biochemical; conditions: for reduction of FIH inhibition compared to 4: IC50 comparison with compound 4
T1 construct: made in house
Description: (§1) Protein production and purification
(§2) PAGE analysis) according to established procedures.
(§3) FIH, PHD2, AspH, JMJD5 and KDM4A inhibition assays
(§4) The in vitro FIH,1, 2 PHD2,1 AspH,38 JMJD536 and KDM4A39 inhibition assays were performed as […]
(§5) KDM4A). Synthetic peptide substrates were used: HIF-1α C-terminal transactivation domain fragment […]
(§6) H3Lys9 bearing three methyl groups at the N ϵ position, H3Lys4 substituted by an Ala and H3Lys14 substituted by an Ile residue) for KDM4A.39 Peptides were prepared as C-terminal amides by GL Biochem (Shanghai) Ltd. Peptide hydroxylation in the case of FIH, PHD2, AspH and JMJD5 (+16 Da mass shift) or peptide demethylation in the case of KDM4A ( -14 Da mass shift) was monitored by SPE-MS. […]

PHD2 = PHD2 (Homo sapiens, UniProt Q9GZT9); assay: biochemical
Description: (§7) 3. Biochemical procedures
as §1, §2, §3, §4, §5, §6

AspH = AspH (Homo sapiens, UniProt Q12797); assay: biochemical
Description: (§8) To investigate the potential of BNS for selective FIH inhibition, its selectivity was investigated with respect to other 2OG-dependent protein oxidising enzymes, that is PHD2, Jumonji-C domain-containing protein 5 (JMJD5), aspartate/asparagine-β-hydroxylase (AspH) and KDM4A, using reported SPE-MS inhibition assays.[58,61,69,70] In addition to PHD2 and KDM4A, we included AspH and JMJD5 in our selectivity studies, because AspH, like FIH, catalyses protein aspartate- and asparagine-residue hydroxylation (although in epidermal growth factor-like domains),[71,72] and because JMJD5 is structurally closely related to FIH.[73,74]
as §7, §1, §2, §3, §4, §5, §6

JMJD5 = JMJD5 (Homo sapiens, UniProt Q8N371); assay: biochemical
Description: as §8, §7, §1, §2, §3, §4, §5, §6

KDM4A = KDM4A (Homo sapiens, UniProt O75164); assay: biochemical; format: biochemical
Description: as §8, §7, §1, §2, §3, §4, §5, §6

[1] = 0.15 μM FIH, 10.0 μM 2OG, 5.0 μM HIF-1α C-TAD788–822, SPE-MS, read-out: FIH IC50

JMJD5, sequence (Q8N371 whole entry): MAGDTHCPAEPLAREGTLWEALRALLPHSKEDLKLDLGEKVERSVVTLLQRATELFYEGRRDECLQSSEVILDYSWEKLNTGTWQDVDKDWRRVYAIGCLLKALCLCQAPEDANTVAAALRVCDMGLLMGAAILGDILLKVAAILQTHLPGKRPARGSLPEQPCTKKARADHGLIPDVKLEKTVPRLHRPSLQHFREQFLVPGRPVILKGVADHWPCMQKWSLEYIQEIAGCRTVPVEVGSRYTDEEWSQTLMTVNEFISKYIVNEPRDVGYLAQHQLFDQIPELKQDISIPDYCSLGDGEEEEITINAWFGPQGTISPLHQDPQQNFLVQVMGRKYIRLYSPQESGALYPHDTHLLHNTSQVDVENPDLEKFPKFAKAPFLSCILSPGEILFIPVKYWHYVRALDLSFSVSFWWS
PHD2, sequence (Q9GZT9 181-426): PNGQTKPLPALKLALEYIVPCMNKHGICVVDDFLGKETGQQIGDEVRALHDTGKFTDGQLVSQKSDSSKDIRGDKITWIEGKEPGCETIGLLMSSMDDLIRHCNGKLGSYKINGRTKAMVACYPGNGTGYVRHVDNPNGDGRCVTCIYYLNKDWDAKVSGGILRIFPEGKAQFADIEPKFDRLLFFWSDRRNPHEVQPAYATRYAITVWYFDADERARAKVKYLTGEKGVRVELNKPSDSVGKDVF
KDM4A, sequence (O75164 1-359): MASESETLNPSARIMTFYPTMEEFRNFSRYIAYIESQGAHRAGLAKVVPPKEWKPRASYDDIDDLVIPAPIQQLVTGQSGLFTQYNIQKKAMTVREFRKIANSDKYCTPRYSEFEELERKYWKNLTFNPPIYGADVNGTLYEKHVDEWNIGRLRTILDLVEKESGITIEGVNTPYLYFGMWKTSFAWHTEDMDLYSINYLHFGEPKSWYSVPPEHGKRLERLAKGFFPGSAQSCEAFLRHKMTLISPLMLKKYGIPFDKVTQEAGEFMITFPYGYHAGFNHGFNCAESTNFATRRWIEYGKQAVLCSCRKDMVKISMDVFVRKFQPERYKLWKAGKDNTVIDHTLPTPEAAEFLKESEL
T1 sequence (Q9NWT6 whole entry): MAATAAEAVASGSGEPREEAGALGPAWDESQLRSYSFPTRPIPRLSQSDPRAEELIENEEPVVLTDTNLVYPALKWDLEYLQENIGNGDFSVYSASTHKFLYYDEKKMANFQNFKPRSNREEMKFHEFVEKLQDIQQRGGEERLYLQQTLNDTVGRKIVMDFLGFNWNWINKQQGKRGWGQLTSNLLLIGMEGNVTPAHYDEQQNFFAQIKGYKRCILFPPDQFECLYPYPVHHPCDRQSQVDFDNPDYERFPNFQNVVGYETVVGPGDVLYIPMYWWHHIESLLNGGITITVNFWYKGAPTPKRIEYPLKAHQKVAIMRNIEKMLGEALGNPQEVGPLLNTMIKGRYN
AspH, sequence (Q12797 315-758): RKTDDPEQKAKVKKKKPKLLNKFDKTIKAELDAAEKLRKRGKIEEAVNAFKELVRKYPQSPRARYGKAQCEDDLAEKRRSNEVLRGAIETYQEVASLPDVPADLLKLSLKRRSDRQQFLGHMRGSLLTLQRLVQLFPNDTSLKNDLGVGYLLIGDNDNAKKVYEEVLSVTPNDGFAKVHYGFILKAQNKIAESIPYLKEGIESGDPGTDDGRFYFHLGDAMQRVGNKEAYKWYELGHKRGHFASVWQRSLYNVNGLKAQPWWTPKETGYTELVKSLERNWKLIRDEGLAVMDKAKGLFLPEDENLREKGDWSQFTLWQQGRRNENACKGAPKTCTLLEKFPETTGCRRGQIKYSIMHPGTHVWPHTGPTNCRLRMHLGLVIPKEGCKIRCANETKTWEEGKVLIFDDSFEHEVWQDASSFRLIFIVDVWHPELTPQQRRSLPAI

SMILES	IC50 (FIH)	IC50 (PHD2)	IC50 (AspH)	IC50 (JMJD5; read-out: JMJD5 IC50)	IC50 (KDM4A)	further results
O=C(O)Cc1cs/c(=N\C(=O)CS(=O)(=O)c2ccccc2)n1O (hydrate or solvate) [compound 4]						melting point: 179 to 181 °C
CC(C(=O)O)c1cs/c(=N\C(=O)CS(=O)(=O)c2ccccc2)n1O (stereo not drawn) (hydrate or solvate) [compound 6]						melting point: 204 to 207 °C
Cc1s/c(=N\C(=O)CS(=O)(=O)c2ccccc2)n(O)c1CC(=O)O (hydrate or solvate) [compound 7]						melting point: 181 to 182 °C
O=C(O)CCc1cs/c(=N\C(=O)CS(=O)(=O)c2ccccc2)n1O (hydrate or solvate) [compound 13]						melting point: 173 to 176 °C
O=C(O)Cc1cs/c(=N\C(=O)CCS(=O)(=O)c2ccccc2)n1O (hydrate or solvate) [compound 15]						melting point: 182 to 184 °C
C[C@@H]1CN(S(=O)(=O)c2ccccc2)C[C@H]1C(=O)/N=c1\scc(CC(=O)O)n1O (relative stereo) [compound 30]	1.7 ± 0.4 µM	71.7 ± 26.6 µM	> 100 µM	25.6 ± 0.6 µM	> 100 µM	
O=C(O)Cc1cs/c(=N\C(=O)CS(=O)(=O)Cc2ccc3ccccc3c2)n1O [BNS, reference compound]	0.3 ± 0.07 µM		3.36 µM and 3.4 µM	0.25 ± 0.01 µM	67.4 ± 39.8 µM	increase in FIH inhibitory activity compared with other PHD inhibitors (FIH; as judged by IC50 comparison, ESI Table S1): > 50 fold; selectivity for FIH inhibition over PHD2 inhibition (FIH; as judged by IC50 values): ~0.4 fold; IC50 (PHD2; 0.15 μM PHD2 181–426, 10.0 μM 2OG, 5.0 μM HIF-1α CODD556–574, SPE-MS): 0.11 µM
O=C(O)CNC(=O)c1c(O)c2ccccc2n(OCC2CC2)c1=O [Desidustat, reference compound]	41.4 ± 1.1 µM					
O=C(O)CNC(=O)c1c(O)cc(CCc2ccccc2)n2ncnc12 [Enarodustat, reference compound]	> 100 µM					
O=C(O)CNC(=O)c1c(O)c2cc(F)ccc2n(CCC2CC2)c1=O [GSK360A, reference compound]						IC50 (FIH; [1]): > 100 µM
O=C(O)c1cnn(-c2nc3cc(OC(F)(F)F)c(Cl)cc3[nH]2)c1 [JNJ-42041935, reference compound]						IC50 (FIH; [1]): 56.4 ± 1.6 µM
O=C(O)CNC(=O)C1=C(O)CCN(Cc2ccc(Oc3ccc(Cl)cc3)nc2)C1=O [TP0463518, reference compound]						IC50 (FIH; [1]): 39.7 ± 0.6 µM
CCOC(=O)Cc1cs/c(=N\C(=O)CS(=O)(=O)c2ccccc2)n1O [compound 3]	> 100 µM	> 100 µM	68 ± 26.8 µM	> 100 µM	> 100 µM	
O=C(O)Cc1cs/c(=N\C(=O)CS(=O)(=O)c2ccccc2)n1O [compound 4]	0.28 µM		9.6 ± 1.3 µM	0.48 ± 0.01 µM	> 100 µM	
O=C(O)Cc1csc(NC(=O)CS(=O)(=O)c2ccccc2)n1 [compound 5]	> 100 µM	> 100 µM	> 100 µM	> 100 µM	> 100 µM	
CC(C(=O)O)c1cs/c(=N\C(=O)CS(=O)(=O)c2ccccc2)n1O (stereo not drawn) [compound 6]	61 ± 3.1 µM		25.6 ± 12.7 µM		> 100 µM	reduction of FIH inhibition compared to 4 (FIH): > 100 fold; IC50 (JMJD5): 60.5 ± 1 µM
Cc1s/c(=N\C(=O)CS(=O)(=O)c2ccccc2)n(O)c1CC(=O)O [compound 7]	36.7 ± 4.9 µM		24.3 ± 12.3 µM	> 100 µM	> 100 µM	reduction of FIH inhibition compared to 4 (FIH): > 100 fold
O=C(CS(=O)(=O)c1ccccc1)/N=c1\sccn1O [compound 8]	> 100 µM	> 100 µM	> 100 µM	> 100 µM	> 100 µM	
COC(=O)Cc1cs/c(=N\C(=O)CS(=O)(=O)c2ccccc2)n1O [compound 9]	> 100 µM	> 100 µM	96.7 ± 3.2 µM	> 100 µM	> 100 µM	
CNC(=O)Cc1cs/c(=N\C(=O)CS(=O)(=O)c2ccccc2)n1O [compound 10]	> 100 µM	> 100 µM	43.6 ± 3.7 µM	77.5 ± 23.8 µM	> 100 µM	
N#CCc1cs/c(=N\C(=O)CS(=O)(=O)c2ccccc2)n1O [compound 11]	> 100 µM	> 100 µM	> 100 µM	> 100 µM	> 100 µM	

SMILES	IC50 (FIH)	IC50 (PHD2)	IC50 (AspH)	IC50 (JMJD5; read-out: JMJD5 IC50)	IC50 (KDM4A)	further results
O=C(CS(=O)(=O)c1ccccc1)/N=c1\scc(Cn2ccnn2)n1O [compound 12]	> 100 µM	> 100 µM	83.3 ± 6.7 µM	> 100 µM	> 100 µM	
O=C(O)CCc1cs/c(=N\C(=O)CS(=O)(=O)c2ccccc2)n1O [compound 13]	2.2 ± 0.6 µM		47.3 ± 4.7 µM	> 100 µM	> 100 µM	reduction of FIH inhibition compared to 4 (FIH): ~10 fold
CC(=O)/N=c1\scc(CC(=O)O)n1O [compound 14]	52.4 ± 30.4 µM	> 100 µM	> 100 µM	3.2 ± 0.7 µM	> 100 µM	reduction of FIH inhibition compared to 4 (FIH): > 200 fold
O=C(O)Cc1cs/c(=N\C(=O)CCS(=O)(=O)c2ccccc2)n1O [compound 15]	0.3 ± 0.05 µM	2.7 ± 0.2 µM	33 ± 12.1 µM	3.3 ± 1.5 µM	> 100 µM	
O=C(O)Cc1cs/c(=N\C(=O)CNC(=O)c2ccccc2)n1O [compound 16]	1.2 ± 0.2 µM		2.4 ± 1.1 µM	1.7 ± 0.3 µM	> 100 µM	
O=C(O)Cc1cs/c(=N\C(=O)CCC(=O)Nc2ccccc2)n1O [compound 18]	6 ± 1.2 µM	2.3 ± 0.1 µM	3.7 ± 1.5 µM	8.4 ± 2.7 µM	> 100 µM	
O=C(O)Cc1cs/c(=N\C(=O)CCNS(=O)(=O)c2ccccc2)n1O [compound 20]	1 ± 0.1 µM	6.5 ± 1.8 µM	23.3 ± 10.1 µM	13.4 ± 6.5 µM	> 100 µM	reduction of FIH inhibition compared to 4 (FIH): ~3 fold; selectivity for FIH inhibition over JMJD5 inhibition (FIH; as judged by IC50 values): ~13 fold; selectivity for FIH inhibition over PHD2 inhibition (FIH; as judged by IC50 values): ~6 fold
O=C(O)Cc1cs/c(=N\C(=O)CS(=O)(=O)Nc2ccccc2)n1O [compound 21]	0.36 ± 0.21 µM	0.57 ± 0.18 µM	0.76 ± 0.1 µM	2.8 ± 0.9 µM	> 100 µM	AspH inhibition potency relative to 4 (more potent) (AspH; IC50 comparison with compound 4): ~5 fold
O=C(O)Cc1cs/c(=N\C(=O)COc2ccccc2)n1O [compound 22]	0.75 ± 0.23 µM		20.2 ± 6.6 µM	1.2 ± 0.2 µM	> 100 µM	
O=C(O)Cc1cs/c(=N\C(=O)CNc2ccccc2)n1O [compound 23]	3.2 ± 1.1 µM		11.1 ± 0.4 µM	4.7 ± 1.1 µM	71.6 ± 11.8 µM	
O=C(O)Cc1cs/c(=N\C(=O)C2CCCN(S(=O)(=O)c3ccccc3)C2)n1O (stereo not drawn) [compound 27]	0.87 ± 0.04 µM	11 ± 1.6 µM	49.1 ± 1.7 µM	13.4 ± 1 µM	> 100 µM	
O=C(O)Cc1cs/c(=N\C(=O)C2CCCN2S(=O)(=O)c2ccccc2)n1O (stereo not drawn) [compound 28]	2.1 ± 1.5 µM	12.7 ± 1.8 µM	24.9 ± 12 µM	2.6 ± 0.2 µM	> 100 µM	
CC1(C(=O)/N=c2\scc(CC(=O)O)n2O)CCN(S(=O)(=O)c2ccccc2)C1 (stereo not drawn) [compound 29]	> 100 µM	> 100 µM	> 100 µM	> 100 µM	> 100 µM	
O=C(O)Cc1csc(=NC(=O)C2CCN(S(=O)(=O)c3ccccc3Cl)C2)n1O (stereo not drawn) [compound 33]	0.39 ± 0.04 µM	8 ± 0.2 µM	30.3 ± 12.6 µM	11.9 ± 1.8 µM	> 100 µM	
O=C(O)Cc1csc(=NC(=O)C2CCN(S(=O)(=O)c3cccc(Cl)c3)C2)n1O (stereo not drawn) [compound 34]	0.44 ± 0.03 µM	14.6 ± 3.2 µM	35 µM	18.5 ± 1 µM	> 100 µM	
O=C(O)Cc1csc(=NC(=O)C2CCN(S(=O)(=O)c3ccc(Cl)cc3)C2)n1O (stereo not drawn) [compound 35]	0.46 ± 0.01 µM	9.2 ± 0.4 µM	28.8 ± 8.9 µM	37.7 ± 0.9 µM	> 100 µM	
COc1ccc(S(=O)(=O)N2CCC(C(=O)N=c3scc(CC(=O)O)n3O)C2)cc1 (stereo not drawn) [compound 36]	0.46 ± 0.01 µM	9.8 ± 0.5 µM	36.6 ± 2.8 µM	16 ± 6.8 µM	> 100 µM	
O=C(O)Cc1csc(=NC(=O)C2CCN(S(=O)(=O)c3ccc(C(F)(F)F)cc3)C2)n1O (stereo not drawn) [compound 37]	0.47 ± 0.07 µM	15.2 ± 3.6 µM	36 ± 0.7 µM	63.2 ± 6.1 µM	> 100 µM	
O=C(O)Cc1csc(=NC(=O)C2CCN(S(=O)(=O)c3ccc4ccccc4c3)C2)n1O (stereo not drawn) [compound 40]	0.45 ± 0.08 µM	5.2 ± 1.1 µM	40.1 ± 2.2 µM	62.8 ± 0.4 µM	> 100 µM	
O=C(O)Cc1csc(=NC(=O)C2CCN(S(=O)(=O)c3cccs3)C2)n1O (stereo not drawn) [compound 41]	0.47 ± 0.07 µM	11.2 ± 2.3 µM	30.3 ± 8 µM	15.4 ± 7.1 µM	> 100 µM	
